Experimental data as given in ChEMBL document CHEMBL4359862, “Cinnamamide: An insight into the pharmacological advances and structure-activity relationships” (Eur J Med Chem, 2019).
Values after ≈ are worked out from the molar mass of the structure shown.

Tests used:
[1] = Inhibition of recombinant LFA1/ICAM1 (unknown origin) interaction in JY-8 cells expressing LFA1 incubated for 45 mins by fluorescence based assay; assay type: cell-based, Homo sapiens
[2] = system: HeLa S3; assay: Antiproliferative activity against human HeLaS3 cells assessed as reduction in cell viability incubated for 72 hrs by cell counter method; assay type: functional, cell-based; details: HeLa S3, 72 h
[3] = system: MGC-803; assay: Antiproliferative activity against human MGC803 cells; assay type: functional, cell-based
[4] = system: Escherichia coli; assay: Antibacterial activity against Escherichia coli assessed as reduction in bacterial cell viability by well plate method; assay type: functional
[5] = system: Bacillus subtilis; assay: Antibacterial activity against Bacillus subtilis assessed as reduction in bacterial cell viability by well plate method; assay type: functional
[6] = system: MCF7; assay: Antiproliferative activity against human MCF7 cells assessed as reduction in cell viability incubated for 48 hrs by MTT assay; assay type: functional, cell-based; details: MCF7, 48 h
[7] = target: T1, Tyrosinase (Agaricus bisporus) (UniProt O42713); assay: Inhibition of mushroom tyrosinase at 25 uM using L-tyrosine as substrate incubated for 30 mins relative to control
T1 sequence (whole entry): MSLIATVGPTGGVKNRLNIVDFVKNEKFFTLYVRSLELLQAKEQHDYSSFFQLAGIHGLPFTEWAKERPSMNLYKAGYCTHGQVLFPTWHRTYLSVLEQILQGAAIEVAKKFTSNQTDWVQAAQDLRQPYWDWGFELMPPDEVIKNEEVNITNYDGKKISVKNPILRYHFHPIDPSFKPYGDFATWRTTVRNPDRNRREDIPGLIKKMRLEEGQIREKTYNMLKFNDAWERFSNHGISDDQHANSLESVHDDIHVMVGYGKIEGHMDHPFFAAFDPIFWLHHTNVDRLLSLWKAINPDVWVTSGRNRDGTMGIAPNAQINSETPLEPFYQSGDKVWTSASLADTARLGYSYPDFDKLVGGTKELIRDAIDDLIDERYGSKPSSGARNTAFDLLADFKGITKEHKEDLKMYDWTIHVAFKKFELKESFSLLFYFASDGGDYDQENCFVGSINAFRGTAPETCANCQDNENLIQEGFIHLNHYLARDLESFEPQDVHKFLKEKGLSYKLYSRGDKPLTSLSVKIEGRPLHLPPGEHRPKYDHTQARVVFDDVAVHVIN

[8] = system: U-937; assay: Cell cycle arrest in human U937 cells assessed as increase in accumulation in G2 phase incubated for 6 hrs by propidium iodide staining based flow cytometry; assay type: functional; details: U-937, 6 h
[9] = system: Escherichia coli; assay: Antibacterial activity against Escherichia coli assessed as reduction in bacterial cell viability incubated for 24 hrs by serial dilution assay; assay type: functional
[10] = system: Candida albicans; assay: Antifungal activity against Candida albicans assessed as reduction in fungal cell growth incubated for 48 hrs by serial dilution assay; assay type: functional
[11] = target: T2, Amine oxidase [flavin-containing] B (Homo sapiens, UniProt P27338); assay: Inhibition of recombinant human MAOB using kynuramine as substrate preincubated with substrate for 10 mins followed by enzyme addition and measured after 20 mins by fluorescence spectrophotometry
T2 sequence (P27338 whole entry): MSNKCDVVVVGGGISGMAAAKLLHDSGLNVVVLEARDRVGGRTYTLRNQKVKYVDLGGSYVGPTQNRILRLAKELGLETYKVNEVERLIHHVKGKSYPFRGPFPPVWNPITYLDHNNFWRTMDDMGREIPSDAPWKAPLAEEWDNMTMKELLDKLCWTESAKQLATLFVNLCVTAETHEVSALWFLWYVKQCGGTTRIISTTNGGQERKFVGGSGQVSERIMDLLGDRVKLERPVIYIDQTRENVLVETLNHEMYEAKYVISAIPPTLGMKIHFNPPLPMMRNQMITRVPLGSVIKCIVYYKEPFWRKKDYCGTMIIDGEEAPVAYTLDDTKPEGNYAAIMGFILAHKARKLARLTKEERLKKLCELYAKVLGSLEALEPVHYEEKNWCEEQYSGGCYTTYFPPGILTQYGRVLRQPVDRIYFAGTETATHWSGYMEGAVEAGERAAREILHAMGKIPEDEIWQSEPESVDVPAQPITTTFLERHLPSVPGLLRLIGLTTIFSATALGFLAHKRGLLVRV

[12] = Inhibition of LFA1/ICAM1 (unknown origin) interaction; design: species or system Homo sapiens
[13] = system: DU-145; assay: Antiproliferative activity against human DU145 cells assessed as reduction in cell viability incubated for 48 hrs by MTT assay; assay type: functional, cell-based; details: DU-145, 48 h
[14] = system: Staphylococcus aureus; assay: Antibacterial activity against Staphylococcus aureus ATCC 6538 assessed as reduction in bacterial cell viability incubated for 24 hrs by broth microdilution assay; assay type: functional, organism-based; details: ATCC 6538, 24 h
[15] = target: T3, P-selectin (Homo sapiens, UniProt P16109); assay: Inhibition of P-selectin (unknown origin) incubated for 30 mins by ELISA
T3 sequence (P16109 whole entry): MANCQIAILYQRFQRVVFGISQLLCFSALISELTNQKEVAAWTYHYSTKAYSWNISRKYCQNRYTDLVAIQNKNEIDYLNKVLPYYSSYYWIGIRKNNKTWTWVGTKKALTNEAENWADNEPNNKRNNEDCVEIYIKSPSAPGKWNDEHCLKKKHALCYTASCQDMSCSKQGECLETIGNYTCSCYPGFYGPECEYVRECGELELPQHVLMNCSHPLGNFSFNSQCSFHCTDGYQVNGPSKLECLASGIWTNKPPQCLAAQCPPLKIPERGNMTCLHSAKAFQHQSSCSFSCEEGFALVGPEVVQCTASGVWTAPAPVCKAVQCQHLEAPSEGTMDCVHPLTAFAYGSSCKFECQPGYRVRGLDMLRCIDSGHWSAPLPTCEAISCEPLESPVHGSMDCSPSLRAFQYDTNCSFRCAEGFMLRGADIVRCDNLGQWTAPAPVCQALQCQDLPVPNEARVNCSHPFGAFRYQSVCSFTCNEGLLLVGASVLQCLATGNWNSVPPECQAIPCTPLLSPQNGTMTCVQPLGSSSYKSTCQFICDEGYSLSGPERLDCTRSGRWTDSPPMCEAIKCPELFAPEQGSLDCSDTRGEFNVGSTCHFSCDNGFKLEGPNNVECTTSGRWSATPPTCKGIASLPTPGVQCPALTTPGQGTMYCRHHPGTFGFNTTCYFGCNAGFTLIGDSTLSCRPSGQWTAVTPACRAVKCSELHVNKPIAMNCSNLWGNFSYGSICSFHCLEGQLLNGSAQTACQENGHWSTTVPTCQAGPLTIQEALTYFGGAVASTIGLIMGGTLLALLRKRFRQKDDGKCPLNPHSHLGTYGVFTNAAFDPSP

## COc1ccccc1Sc1ccc(/C=C/C(=O)N2CCC(C(=O)O)CC2)c(C(F)(F)F)c1C(F)(F)F
[1]
  IC50: 0.0001 µM

## COc1ccc(/C=C/C(=O)N2C[C@H]3C[C@@]34C2=CC(=O)c2[nH]c(C)c(Cl)c24)cc1
[2]
  IC50: 0.029 nM

## CCCc1n[nH]c(C(N)=O)c1NC(=O)/C=C/c1ccccc1
[3]
  IC50: 3.44 µM

## CCc1ccccc1Sc1ccc(/C=C/C(=O)N2CCN(C(C)=O)CC2)cc1[N+](=O)[O-]
[1]
  IC50: 0.065 µM

## COc1ccc(/C=C/C(=O)N2CCOCC2)c(OC)c1OC
[4]
  MIC: 6.12 µM (≈ 1.88 µg/mL)
[5]
  MIC: 6.12 µM (≈ 1.88 µg/mL)

## CC(C)(C)NC(=O)/C=C/c1ccccc1 [N-TERT-BUTYLCINNAMAMIDE]
[6]
  IC50: 13.4 µM

## O=C(/C=C/c1ccc(O)cc1O)N1CCOCC1
[7]
  inhibition: 95.7%

## COc1ccc(/C=C/C(=O)NC23CC4CC(CC(C4)C2)C3)c2ccccc12
[8]
  IC50: 7.1 µM

## CN(C)C(=O)/C=C/c1ccccc1
[9]
  log(1/MIC): 2.43
[10]
  log(1/MIC): 2.43

## O=C(/C=C/c1ccc(O)cc1)NCCc1c[nH]c2ccc(O)cc12 [N-P-COUMAROYL SEROTONIN]
[11]
  EC50: 1.2 µM

## CC(=O)N1CCN(C(=O)/C=C/c2ccc(Sc3ccc4c(c3)OCCO4)c(Cl)c2)CC1
[12]
  IC50: 0.04 µM

## CN1CCN(C(=O)/C=C/c2ccc(O)cc2O)CC1
[7]
  inhibition: 94.4%

## C=CCOc1cc(/C=C/C(=O)Nc2cc(OC)c(OC)c(OC)c2)ccc1N/C=C\C(=O)c1cc(N)c(OC)c(OC)c1
[13]
  IC50: 7.48 µM

## COc1cc(/C=C/C(=O)NNC(=O)c2ccccc2)cc(OC)c1OC
[14]
  IC50: 85.2 µM

## CCCCCCCCCCCCCCCCNC(=O)/C=C/c1ccc(-c2[nH]c(-c3ccc(C4=NOC(C(=O)O)C4)cc3)nc2-c2ccc(/C=C/C(=O)O)cc2)cc1 (stereo not given)
[15]
  IC50: 0.3 µM

## CCCc1n[nH]c(C(N)=O)c1NC(=O)/C=C/c1cc(OC)c(OC)c(OC)c1
[3]
  IC50: 4.24 µM

## O=C(/C=C/c1ccc(O)cc1O)Nc1ccccc1
[7]
  inhibition: 93.7%

## COc1cccc(/C=C/C(=O)Nc2cc(OC)c(OC)c(OC)c2)c1
[8]
  IC50: 8 µM
